This is an account of results in ChEMBL document CHEMBL1148642, “(2S,3S)-3-Amino-4-(3,3-difluoropyrrolidin-1-yl)-N,N-dimethyl-4-oxo-2-(4-[1,2,4]triazolo[1,5-a]-pyridin-6-ylphenyl)butanamide: a selective alpha-amino amide dipeptidyl peptidase IV inhibitor for the treatment of type 2 diabetes” (J Med Chem, 2006).

The structures appear in SMILES notation. Bounds are passed on as bounds.

The first data set deals with T1, Dipeptidyl peptidase 4 (Homo sapiens, UniProt P27487). The data set can be described thus: Inhibition of DPP4 in presence of 50% human serum.
T1 sequence (P27487 whole entry): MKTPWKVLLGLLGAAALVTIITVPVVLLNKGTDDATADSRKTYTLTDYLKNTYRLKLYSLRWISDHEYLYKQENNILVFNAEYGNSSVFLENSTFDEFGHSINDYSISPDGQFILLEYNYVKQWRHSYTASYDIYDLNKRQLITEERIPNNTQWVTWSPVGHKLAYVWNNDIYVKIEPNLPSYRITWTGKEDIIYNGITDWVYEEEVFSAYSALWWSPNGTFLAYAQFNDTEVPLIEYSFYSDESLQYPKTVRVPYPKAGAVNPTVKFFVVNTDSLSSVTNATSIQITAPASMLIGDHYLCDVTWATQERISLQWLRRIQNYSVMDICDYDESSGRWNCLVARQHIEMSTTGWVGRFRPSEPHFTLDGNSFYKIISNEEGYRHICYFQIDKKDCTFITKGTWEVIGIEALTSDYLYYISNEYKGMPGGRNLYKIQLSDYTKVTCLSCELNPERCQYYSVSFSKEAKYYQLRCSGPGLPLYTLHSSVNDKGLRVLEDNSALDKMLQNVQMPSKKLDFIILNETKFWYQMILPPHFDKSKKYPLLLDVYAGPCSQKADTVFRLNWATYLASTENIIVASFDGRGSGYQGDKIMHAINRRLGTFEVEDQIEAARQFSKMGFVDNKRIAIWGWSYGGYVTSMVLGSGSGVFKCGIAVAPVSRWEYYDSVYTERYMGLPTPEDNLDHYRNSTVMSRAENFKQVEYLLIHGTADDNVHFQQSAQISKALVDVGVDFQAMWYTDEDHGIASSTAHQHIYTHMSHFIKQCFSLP
Settings: not given
For `Cc1nc2ccc(-c3ccc([C@H](C(=O)N(C)C)[C@H](N)C(=O)N4CC[C@H](F)C4)cc3)cn2n1`, the IC50 was found to be 0.223 µM.

Take `CN(C)C(=O)[C@@H](c1ccc(-c2ccn3nccc3n2)cc1)[C@H](N)C(=O)N1CC[C@H](F)C1.O=C(O)C(F)(F)F`: the IC50 turned out to be 0.053 µM.

In the case of `Cc1cc(-c2ccc([C@H](C(=O)N(C)C)[C@H](N)C(=O)N3CC[C@H](F)C3)cc2)cn2ncnc12`, the IC50 turned out to be 0.64 µM.

The target of the next data set is T1, Dipeptidyl peptidase 4. Put plainly: Inhibition of DPP4.
Settings: not given
Take `Cc1nc2ccc(-c3ccc([C@H](C(=O)N(C)C)[C@H](N)C(=O)N4CC[C@H](F)C4)cc3)cn2n1`: the IC50 came to 0.022 µM.

Molecule `CN(C)C(=O)[C@@H](c1ccc(-c2ccn3nccc3n2)cc1)[C@H](N)C(=O)N1CC[C@H](F)C1.O=C(O)C(F)(F)F` gave an IC50 of 0.008 µM.

`Cc1cc(-c2ccc([C@H](C(=O)N(C)C)[C@H](N)C(=O)N3CC[C@H](F)C3)cc2)cn2ncnc12`: the IC50 is 0.15 µM.

System in a further data set: not listed separately
Put plainly: Bioavailability in rat at 1 mg/kg, iv and 2 mg/kg, po. Format: ADME, organism-based. To be noted: in vivo.
In turn, `CN(C)C(=O)[C@@H](c1ccc(-c2ccn3nccc3n2)cc1)[C@H](N)C(=O)N1CC[C@H](F)C1.O=C(O)C(F)(F)F` came in with a bioavailability of 46%.

System in a further data set: not listed separately
Put plainly: Cmax in rat at 2 mg/kg, po. To be noted: in vivo. Format: ADME, organism-based. The arrangement: dose 2 mg/kg, route oral.
As for `CN(C)C(=O)[C@@H](c1ccc(-c2ccn3nccc3n2)cc1)[C@H](N)C(=O)N1CC[C@H](F)C1.O=C(O)C(F)(F)F`, the Cmax amounted to 3.9 µM.

The target in the next data set is Dipeptidyl peptidase 9 (Homo sapiens, UniProt Q86TI2). Put plainly: Inhibition of DPP9.
Sequence of Dipeptidyl peptidase 9 (Q86TI2 whole entry): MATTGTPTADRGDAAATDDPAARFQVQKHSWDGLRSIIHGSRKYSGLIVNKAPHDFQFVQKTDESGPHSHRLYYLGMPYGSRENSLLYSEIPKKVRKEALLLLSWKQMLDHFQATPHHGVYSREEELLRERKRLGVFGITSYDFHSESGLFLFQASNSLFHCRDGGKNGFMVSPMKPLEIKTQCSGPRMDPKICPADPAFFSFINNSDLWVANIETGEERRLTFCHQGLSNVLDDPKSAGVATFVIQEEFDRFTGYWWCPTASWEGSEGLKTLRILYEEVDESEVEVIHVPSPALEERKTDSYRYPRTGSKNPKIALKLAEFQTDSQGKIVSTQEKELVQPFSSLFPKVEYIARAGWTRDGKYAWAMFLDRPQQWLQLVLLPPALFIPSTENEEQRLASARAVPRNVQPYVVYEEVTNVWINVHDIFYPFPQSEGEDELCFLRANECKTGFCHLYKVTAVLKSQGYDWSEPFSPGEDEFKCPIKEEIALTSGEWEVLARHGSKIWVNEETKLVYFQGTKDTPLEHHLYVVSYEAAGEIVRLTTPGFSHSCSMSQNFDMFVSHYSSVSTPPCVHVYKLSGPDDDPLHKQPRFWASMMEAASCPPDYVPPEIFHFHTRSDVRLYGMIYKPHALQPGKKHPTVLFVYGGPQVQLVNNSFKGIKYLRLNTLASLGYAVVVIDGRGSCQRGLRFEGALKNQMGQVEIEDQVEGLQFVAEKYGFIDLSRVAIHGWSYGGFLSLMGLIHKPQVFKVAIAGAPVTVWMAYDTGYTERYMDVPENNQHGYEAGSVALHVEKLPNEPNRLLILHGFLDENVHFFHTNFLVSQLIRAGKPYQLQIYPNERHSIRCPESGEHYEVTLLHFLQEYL
Settings: not given
Regarding `Cc1nc2ccc(-c3ccc([C@H](C(=O)N(C)C)[C@H](N)C(=O)N4CC[C@H](F)C4)cc3)cn2n1`, the IC50 is over 100 µM.

For the molecule `CN(C)C(=O)[C@@H](c1ccc(-c2ccn3nccc3n2)cc1)[C@H](N)C(=O)N1CC[C@H](F)C1.O=C(O)C(F)(F)F`, the IC50 is over 100 µM.

Molecule `Cc1cc(-c2ccc([C@H](C(=O)N(C)C)[C@H](N)C(=O)N3CC[C@H](F)C3)cc2)cn2ncnc12` displayed an IC50 of over 100 µM.

System in the next data set: not listed separately
Put plainly: Plasma clearance in rat at 1 mg/kg, iv or 2 mg/kg, po. The format is ADME, organism-based.
Settings: not given
In the case of `CN(C)C(=O)[C@@H](c1ccc(-c2ccn3nccc3n2)cc1)[C@H](N)C(=O)N1CC[C@H](F)C1.O=C(O)C(F)(F)F`, the clearance was 3.3 mL/min/kg.

For a further data set, the system named is Rattus norvegicus. Put plainly: AUC in rat at 2 mg/kg, po normalized to 1 mg/kg. The format is ADME, organism-based, Plasma. To be noted: in vivo.
In turn, `CN(C)C(=O)[C@@H](c1ccc(-c2ccn3nccc3n2)cc1)[C@H](N)C(=O)N1CC[C@H](F)C1.O=C(O)C(F)(F)F` came in with an AUC of 5.6 µM·h.

System in a further data set: not listed separately
The data set can be described thus: Half life in rat at 1 mg/kg, iv or 2 mg/kg, po. Format: ADME, organism-based. To be noted: in vivo.
With `CN(C)C(=O)[C@@H](c1ccc(-c2ccn3nccc3n2)cc1)[C@H](N)C(=O)N1CC[C@H](F)C1.O=C(O)C(F)(F)F`, the half-life is 4.3 h.

A further data set deals with Xaa-Pro aminopeptidase 1 (Homo sapiens, UniProt Q9NQW7). Put plainly: Inhibition of aminopeptidase P.
Sequence of Xaa-Pro aminopeptidase 1 (Q9NQW7 whole entry): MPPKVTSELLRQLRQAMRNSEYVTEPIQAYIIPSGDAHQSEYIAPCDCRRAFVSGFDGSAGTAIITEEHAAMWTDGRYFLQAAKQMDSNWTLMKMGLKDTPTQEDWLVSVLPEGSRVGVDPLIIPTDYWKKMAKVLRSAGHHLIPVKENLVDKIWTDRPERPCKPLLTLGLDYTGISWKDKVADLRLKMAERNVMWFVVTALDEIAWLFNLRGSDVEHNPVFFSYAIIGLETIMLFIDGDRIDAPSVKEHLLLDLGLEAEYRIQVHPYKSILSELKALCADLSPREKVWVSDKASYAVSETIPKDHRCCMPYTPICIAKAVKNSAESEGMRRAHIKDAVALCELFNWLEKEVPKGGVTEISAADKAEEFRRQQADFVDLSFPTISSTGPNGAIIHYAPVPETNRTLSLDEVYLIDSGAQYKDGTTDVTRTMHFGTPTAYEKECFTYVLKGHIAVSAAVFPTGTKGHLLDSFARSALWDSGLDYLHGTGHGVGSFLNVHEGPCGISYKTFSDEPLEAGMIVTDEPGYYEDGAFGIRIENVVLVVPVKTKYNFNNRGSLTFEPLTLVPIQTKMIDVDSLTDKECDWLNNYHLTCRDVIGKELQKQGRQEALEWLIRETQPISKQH
Settings: not given
On to `Cc1nc2ccc(-c3ccc([C@H](C(=O)N(C)C)[C@H](N)C(=O)N4CC[C@H](F)C4)cc3)cn2n1`, for which the IC50 is over 40 µM.

For `CN(C)C(=O)[C@@H](c1ccc(-c2ccn3nccc3n2)cc1)[C@H](N)C(=O)N1CC[C@H](F)C1.O=C(O)C(F)(F)F`, the IC50 is over 40 µM.

As for `Cc1cc(-c2ccc([C@H](C(=O)N(C)C)[C@H](N)C(=O)N3CC[C@H](F)C3)cc2)cn2ncnc12`, the IC50 is over 40 µM.

The target of a further data set is Dipeptidyl peptidase 2 (Homo sapiens, UniProt Q9UHL4). The data set can be described thus: Inhibition of QPP.
Settings: not given
As to `Cc1nc2ccc(-c3ccc([C@H](C(=O)N(C)C)[C@H](N)C(=O)N4CC[C@H](F)C4)cc3)cn2n1`, the IC50 was over 100 µM.

`CN(C)C(=O)[C@@H](c1ccc(-c2ccn3nccc3n2)cc1)[C@H](N)C(=O)N1CC[C@H](F)C1.O=C(O)C(F)(F)F`: the IC50 was determined as 63 µM.

Take `Cc1cc(-c2ccc([C@H](C(=O)N(C)C)[C@H](N)C(=O)N3CC[C@H](F)C3)cc2)cn2ncnc12`: the IC50 is over 100 µM.

A further data set deals with T2, Xaa-Pro dipeptidase (Homo sapiens, UniProt P12955).
T2 sequence (P12955 whole entry): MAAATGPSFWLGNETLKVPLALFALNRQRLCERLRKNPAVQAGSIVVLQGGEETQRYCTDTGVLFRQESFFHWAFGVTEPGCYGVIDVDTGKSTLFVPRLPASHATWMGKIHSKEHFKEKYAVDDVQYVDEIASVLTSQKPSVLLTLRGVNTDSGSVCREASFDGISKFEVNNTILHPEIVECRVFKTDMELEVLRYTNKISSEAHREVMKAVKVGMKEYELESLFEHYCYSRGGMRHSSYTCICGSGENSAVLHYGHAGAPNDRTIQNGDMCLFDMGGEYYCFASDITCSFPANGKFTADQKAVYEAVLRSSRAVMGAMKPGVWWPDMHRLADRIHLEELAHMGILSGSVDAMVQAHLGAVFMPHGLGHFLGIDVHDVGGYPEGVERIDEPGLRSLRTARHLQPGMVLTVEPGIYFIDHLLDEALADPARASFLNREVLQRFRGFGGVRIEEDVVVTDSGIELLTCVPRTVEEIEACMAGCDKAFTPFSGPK
Put plainly: Inhibition of prolidase.
Settings: not given
For the molecule `Cc1nc2ccc(-c3ccc([C@H](C(=O)N(C)C)[C@H](N)C(=O)N4CC[C@H](F)C4)cc3)cn2n1`, the IC50 is over 40 µM.

Take `CN(C)C(=O)[C@@H](c1ccc(-c2ccn3nccc3n2)cc1)[C@H](N)C(=O)N1CC[C@H](F)C1.O=C(O)C(F)(F)F`: the IC50 is over 40 µM.

In turn, `Cc1cc(-c2ccc([C@H](C(=O)N(C)C)[C@H](N)C(=O)N3CC[C@H](F)C3)cc2)cn2ncnc12` showed an IC50 of over 40 µM.

A further data set addresses T3, Prolyl endopeptidase FAP (Homo sapiens, UniProt Q12884).
T3 sequence (Q12884 whole entry): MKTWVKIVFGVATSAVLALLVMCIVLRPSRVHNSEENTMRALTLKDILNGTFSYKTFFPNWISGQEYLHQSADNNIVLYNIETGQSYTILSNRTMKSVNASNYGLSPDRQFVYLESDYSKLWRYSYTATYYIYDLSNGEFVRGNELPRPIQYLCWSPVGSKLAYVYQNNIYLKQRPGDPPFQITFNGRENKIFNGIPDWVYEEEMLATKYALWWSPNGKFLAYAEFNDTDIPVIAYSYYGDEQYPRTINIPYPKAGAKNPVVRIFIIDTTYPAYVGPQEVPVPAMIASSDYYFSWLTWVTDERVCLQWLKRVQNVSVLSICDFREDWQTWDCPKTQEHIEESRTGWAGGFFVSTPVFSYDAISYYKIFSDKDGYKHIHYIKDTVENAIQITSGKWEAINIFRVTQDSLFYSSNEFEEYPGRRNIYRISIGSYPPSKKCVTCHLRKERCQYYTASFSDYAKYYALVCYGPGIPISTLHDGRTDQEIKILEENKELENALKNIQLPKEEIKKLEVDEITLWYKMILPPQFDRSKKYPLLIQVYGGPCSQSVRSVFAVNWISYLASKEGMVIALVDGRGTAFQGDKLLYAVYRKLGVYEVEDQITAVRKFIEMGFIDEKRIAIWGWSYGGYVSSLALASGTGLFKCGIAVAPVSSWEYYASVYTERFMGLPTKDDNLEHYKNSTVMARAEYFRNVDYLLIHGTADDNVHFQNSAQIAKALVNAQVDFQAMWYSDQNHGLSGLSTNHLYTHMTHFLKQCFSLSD
Put plainly: Inhibition of FAP.
Settings: not given
In turn, `Cc1nc2ccc(-c3ccc([C@H](C(=O)N(C)C)[C@H](N)C(=O)N4CC[C@H](F)C4)cc3)cn2n1` came in with an IC50 of over 40 µM.

Molecule `CN(C)C(=O)[C@@H](c1ccc(-c2ccn3nccc3n2)cc1)[C@H](N)C(=O)N1CC[C@H](F)C1.O=C(O)C(F)(F)F` showed an IC50 of over 40 µM.

With `Cc1cc(-c2ccc([C@H](C(=O)N(C)C)[C@H](N)C(=O)N3CC[C@H](F)C3)cc2)cn2ncnc12`, the half-maximal inhibitory concentration (IC50) is over 40 µM.

The target of a further data set is Dipeptidyl peptidase 8 (Homo sapiens, UniProt Q6V1X1). Put plainly: Inhibition of DPP8.
Sequence of Dipeptidyl peptidase 8 (Q6V1X1 whole entry): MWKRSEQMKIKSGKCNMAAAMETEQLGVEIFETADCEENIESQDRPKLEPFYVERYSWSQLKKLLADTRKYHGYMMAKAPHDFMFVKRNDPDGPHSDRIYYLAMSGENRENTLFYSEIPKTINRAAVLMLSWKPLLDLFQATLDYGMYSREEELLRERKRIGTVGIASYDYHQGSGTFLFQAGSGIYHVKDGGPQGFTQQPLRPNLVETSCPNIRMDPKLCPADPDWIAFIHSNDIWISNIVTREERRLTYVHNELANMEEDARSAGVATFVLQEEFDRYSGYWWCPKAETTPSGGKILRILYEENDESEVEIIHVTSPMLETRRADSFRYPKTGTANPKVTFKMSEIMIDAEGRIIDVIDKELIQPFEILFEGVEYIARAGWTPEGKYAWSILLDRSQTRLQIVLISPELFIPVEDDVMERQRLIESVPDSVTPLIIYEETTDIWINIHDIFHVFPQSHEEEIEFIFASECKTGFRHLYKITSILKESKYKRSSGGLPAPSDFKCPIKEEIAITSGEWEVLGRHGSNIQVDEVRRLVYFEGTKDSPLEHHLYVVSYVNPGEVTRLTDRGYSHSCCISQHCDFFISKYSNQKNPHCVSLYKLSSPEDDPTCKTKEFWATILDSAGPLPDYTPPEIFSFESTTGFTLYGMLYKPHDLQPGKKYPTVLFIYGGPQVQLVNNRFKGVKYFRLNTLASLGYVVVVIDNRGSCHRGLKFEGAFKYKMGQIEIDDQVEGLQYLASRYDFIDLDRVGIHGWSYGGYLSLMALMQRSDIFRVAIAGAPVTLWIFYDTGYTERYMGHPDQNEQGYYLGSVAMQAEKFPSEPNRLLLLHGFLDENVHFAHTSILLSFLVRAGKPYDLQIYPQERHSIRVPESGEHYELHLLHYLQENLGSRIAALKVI
Settings: not given
In turn, `Cc1nc2ccc(-c3ccc([C@H](C(=O)N(C)C)[C@H](N)C(=O)N4CC[C@H](F)C4)cc3)cn2n1` returned an IC50 of over 100 µM.

Consider `CN(C)C(=O)[C@@H](c1ccc(-c2ccn3nccc3n2)cc1)[C@H](N)C(=O)N1CC[C@H](F)C1.O=C(O)C(F)(F)F`, for which the IC50 is over 100 µM.

`Cc1cc(-c2ccc([C@H](C(=O)N(C)C)[C@H](N)C(=O)N3CC[C@H](F)C3)cc2)cn2ncnc12`: the IC50 is over 100 µM.

As usually defined, the IC50 is the concentration that gives 50% inhibition. A word on the bioavailability: it is dose-corrected exposure relative to a reference, in per cent. Low readings indicate poor availability, high ones good availability. What is called Cmax is the maximum level reached in the sampled fluid or tissue. In general, AUC refers to the area under the concentration-time curve, a measure of exposure. Low values mean low exposure, high ones high exposure. As usually defined, the half-life is the time needed for the level to fall by half in the phase considered. A high value points to slow decline.
